Data reported in ChEMBL document CHEMBL4483862, “Open-source discovery of chemical leads for next-generation chemoprotective antimalarials” (2018).

Test system: Plasmodium berghei
Test: Luciferase/luciferin-expressing antifolate-resistant parasites were used to infect a culture of HepG2 cells that were pre-incubated with compounds. Infected hepatocytes emit light due to the luciferase reaction. Assay results are presented as the percent inhibition of light emission compared to control. […]
Type: functional
Details: sporozoite; for IC90: read-out: LUCIFERASE INFECTION ASSAY - IC90

## CC(C)(C)c1csc(NC(=O)Nc2ccccc2)n1
HEPG2TOX_HILL_SLOPE 1.38, HEPG2TOX_R_SQUARED 0.755, PBLUC_HILL_SLOPE 7.68, PBLUC_R_SQUARED 0.272, read-out: LUCIFERASE INFECTION ASSAY - IC50
  IC50: 9.6 µM
  IC90: > 12 µM

## CCNc1ccc(C(=O)OCC)cc1NC(=O)c1cccc(N(C)C)c1
HEPG2TOX_HILL_SLOPE 1.36, HEPG2TOX_R_SQUARED 0.981, PBLUC_HILL_SLOPE 2.44, PBLUC_R_SQUARED 0.636, read-out: LUCIFERASE INFECTION ASSAY - IC50
  IC50: 1.08 µM
  IC90: 2.65 µM

## Clc1ccc(CSc2nncn2-c2ccc3c(c2)OCCO3)cc1
HEPG2TOX_HILL_SLOPE 1.37, HEPG2TOX_R_SQUARED 0.824, PBLUC_HILL_SLOPE 1.99, PBLUC_R_SQUARED 0.536, read-out: LUCIFERASE INFECTION ASSAY - IC50
  IC50: 1.16 µM
  IC90: 3.5 µM

## CCOC(=O)c1sc(N)c(C#N)c1CSc1nc(-c2ccccc2)cs1
HEPG2TOX_HILL_SLOPE 1.34, HEPG2TOX_R_SQUARED 0.985, PBLUC_HILL_SLOPE 11.8, PBLUC_R_SQUARED 0.536, read-out: LUCIFERASE INFECTION ASSAY - IC50
  IC50: 3.06 µM
  IC90: 3.69 µM

## Cc1noc(C)c1CCC(=O)Nc1nc2cc(C(F)(F)F)ccc2n1Cc1ccco1
HEPG2TOX_HILL_SLOPE 1.36, HEPG2TOX_R_SQUARED 0.789, PBLUC_HILL_SLOPE 10.4, PBLUC_R_SQUARED 0.861, read-out: LUCIFERASE INFECTION ASSAY - IC50
  IC50: 2.89 µM
  IC90: 3.57 µM

## Oc1ccc(-c2cnc3cnc(-c4ccc(Cl)cc4Cl)cn23)cc1
HEPG2TOX_HILL_SLOPE 1.37, HEPG2TOX_R_SQUARED 0.776, PBLUC_HILL_SLOPE 1.58, PBLUC_R_SQUARED 0.733, read-out: LUCIFERASE INFECTION ASSAY - IC50
  IC50: 0.858 µM
  IC90: 3.44 µM

## O=C(NNC(=O)c1nn(-c2ccccc2)cc1O)c1ccc(-n2cccn2)cc1
HEPG2TOX_HILL_SLOPE 1.34, HEPG2TOX_R_SQUARED 0.874, PBLUC_HILL_SLOPE 11.6, PBLUC_R_SQUARED 0.65, read-out: LUCIFERASE INFECTION ASSAY - IC50
  IC50: 3.53 µM
  IC90: 4.26 µM

## COc1cc(-c2nccc3n[nH]c(C4CC4)c23)cc(OC)c1OC
HEPG2TOX_HILL_SLOPE 1.34, HEPG2TOX_R_SQUARED 0.994, read-out: LUCIFERASE INFECTION ASSAY - IC50
  IC50: > 10 µM
  IC90: > 10 µM

## c1nc(NCc2ccc(CN3CCOCC3)cc2)c2c3c(sc2n1)CCC3
HEPG2TOX_HILL_SLOPE 1.37, HEPG2TOX_R_SQUARED 0.969, PBLUC_HILL_SLOPE 10, PBLUC_R_SQUARED 0.164, read-out: LUCIFERASE INFECTION ASSAY - IC50
  IC50: 1.25 µM
  IC90: 1.55 µM

## c1ccc(C2(CNc3ncnc4ccccc34)CCC2)cc1
HEPG2TOX_HILL_SLOPE 1.34, HEPG2TOX_R_SQUARED 0.743, PBLUC_HILL_SLOPE 15.9, 1.42, PBLUC_R_SQUARED 0.162, 0.799, read-out: LUCIFERASE INFECTION ASSAY - IC50
  IC50: 2.35 µM
  IC90: 5.71 µM

## COc1ccc(C(C)C)cc1-c1cc(N2CCCC2CO)n2nccc2n1 (configuration not stated)
HEPG2TOX_HILL_SLOPE 1.35, HEPG2TOX_R_SQUARED 0.737, PBLUC_HILL_SLOPE 1.83, PBLUC_R_SQUARED 0.512, read-out: LUCIFERASE INFECTION ASSAY - IC50
  IC50: 2.09 µM
  IC90: 6.95 µM

## Cn1c(N)c(C(=O)CSc2nc(-c3ccccc3)c(-c3ccccc3)o2)c(=O)n(C)c1=O
HEPG2TOX_HILL_SLOPE 1.35, HEPG2TOX_R_SQUARED 0.367, PBLUC_HILL_SLOPE 15.8, PBLUC_R_SQUARED 0.143, read-out: LUCIFERASE INFECTION ASSAY - IC50
  IC50: 9 µM
  IC90: > 10 µM

## Cc1ccc(/C(C#N)=C/c2ccc(N(C)C)cc2)cc1
HEPG2TOX_HILL_SLOPE 1.36, HEPG2TOX_R_SQUARED 0.894, PBLUC_HILL_SLOPE 0.698, PBLUC_R_SQUARED 0.911, read-out: LUCIFERASE INFECTION ASSAY - IC50
  IC50: 0.218 µM
  IC90: 5.07 µM

## Cn1c(-c2ccccc2)c(C(=O)COc2ccc(-c3ccccc3)cc2)c2ccccc21
HEPG2TOX_HILL_SLOPE 1.37, HEPG2TOX_R_SQUARED 0.968, PBLUC_HILL_SLOPE 1.98, PBLUC_R_SQUARED 0.384, read-out: LUCIFERASE INFECTION ASSAY - IC50
  IC50: 4.87 µM
  IC90: > 10 µM

## Cc1cc(NC(=O)c2cc(-c3cccs3)nc3ccccc23)n(-c2ccccn2)n1
HEPG2TOX_HILL_SLOPE 1.34, HEPG2TOX_R_SQUARED 0.908, PBLUC_HILL_SLOPE 3.47, PBLUC_R_SQUARED 0.53, read-out: LUCIFERASE INFECTION ASSAY - IC50
  IC50: 2.45 µM
  IC90: 4.61 µM

## Cc1c(C(=O)Nc2ccc(Oc3ccccc3)cc2)cnn1C
HEPG2TOX_HILL_SLOPE 1.34, HEPG2TOX_R_SQUARED 0.933, PBLUC_HILL_SLOPE 3.41, PBLUC_R_SQUARED 0.294, read-out: LUCIFERASE INFECTION ASSAY - IC50
  IC50: 7.03 µM
  IC90: > 10 µM

## O=C(Nc1nc(-c2ccccn2)cs1)c1ccc(-n2cncn2)cc1
HEPG2TOX_HILL_SLOPE 1.34, HEPG2TOX_R_SQUARED 0.829, PBLUC_HILL_SLOPE 31.3, PBLUC_R_SQUARED 0.545, read-out: LUCIFERASE INFECTION ASSAY - IC50
  IC50: 1.12 µM
  IC90: 1.2 µM

## CC(C)c1cccc(-c2nc3ccnc(NCc4ccccn4)c3[nH]2)c1
HEPG2TOX_HILL_SLOPE 1.38, HEPG2TOX_R_SQUARED 0.883, PBLUC_HILL_SLOPE 3.5, PBLUC_R_SQUARED 0.343, read-out: LUCIFERASE INFECTION ASSAY - IC50
  IC50: 6.01 µM
  IC90: > 10 µM

## Cc1cc(C)n(CCC(=O)N2CCN(C(c3ccc(F)cc3)c3ccc(F)cc3)CC2)n1
HEPG2TOX_HILL_SLOPE 1.37, HEPG2TOX_R_SQUARED 0.338, PBLUC_HILL_SLOPE 18.9, PBLUC_R_SQUARED 0.322, read-out: LUCIFERASE INFECTION ASSAY - IC50
  IC50: 9.4 µM
  IC90: > 10 µM

## CCn1c2ccccc2c2cc(Nc3cc(-c4cc(OC)c(OC)c(OC)c4)ncn3)ccc21
HEPG2TOX_HILL_SLOPE 1.37, HEPG2TOX_R_SQUARED 0.859, PBLUC_HILL_SLOPE 1.98, PBLUC_R_SQUARED 0.713, read-out: LUCIFERASE INFECTION ASSAY - IC50
  IC50: 0.426 µM
  IC90: 1.29 µM

## CNc1snc(C)c1C(=O)OCCOc1ccccc1C(C)=O
HEPG2TOX_HILL_SLOPE 1.35, HEPG2TOX_R_SQUARED 0.846, PBLUC_HILL_SLOPE 3.65, PBLUC_R_SQUARED 0.5, read-out: LUCIFERASE INFECTION ASSAY - IC50
  IC50: 3.86 µM
  IC90: 7.06 µM

## O=C(Nc1nc2ccccc2[nH]1)c1cccnc1Nc1ccccc1F
HEPG2TOX_HILL_SLOPE 1.38, HEPG2TOX_R_SQUARED 0.863, PBLUC_HILL_SLOPE 3.37, PBLUC_R_SQUARED 0.741, read-out: LUCIFERASE INFECTION ASSAY - IC50
  IC50: 1.98 µM
  IC90: 3.81 µM

## Cc1nc(NC(=O)Cc2nn(C)c(=O)c3ccccc23)sc1-c1ccccn1
HEPG2TOX_HILL_SLOPE 1.36, HEPG2TOX_R_SQUARED 0.975, PBLUC_HILL_SLOPE 4.04, PBLUC_R_SQUARED 0.363, read-out: LUCIFERASE INFECTION ASSAY - IC50
  IC50: 8.34 µM
  IC90: > 10 µM

## Cn1ccc2cc(-c3cn4c(-c5ccc(C#N)cc5)cnc4cn3)ccc21
HEPG2TOX_HILL_SLOPE 1.34, HEPG2TOX_R_SQUARED 0.963, PBLUC_HILL_SLOPE 3.57, PBLUC_R_SQUARED 0.761, read-out: LUCIFERASE INFECTION ASSAY - IC50
  IC50: 0.295 µM
  IC90: 0.546 µM

## CC(C)CCn1c(=O)c2ccccc2n2c(SCCS(=O)(=O)c3ccc(Cl)cc3)nnc12
HEPG2TOX_HILL_SLOPE 1.35, HEPG2TOX_R_SQUARED 0.511, PBLUC_HILL_SLOPE 2.98, PBLUC_R_SQUARED 0.427, read-out: LUCIFERASE INFECTION ASSAY - IC50
  IC50: 7.28 µM
  IC90: > 10 µM

## Cc1ccc(-c2noc(CN3CCN(c4cc(C)nc(N)n4)CC3)n2)cc1
HEPG2TOX_HILL_SLOPE 1.35, HEPG2TOX_R_SQUARED 0.853, PBLUC_HILL_SLOPE 1.09, PBLUC_R_SQUARED 0.613, read-out: LUCIFERASE INFECTION ASSAY - IC50
  IC50: 1.45 µM
  IC90: > 10 µM

## COc1cccc(/N=C2\SCC(C)(C)N2C(=O)c2ccccc2OCc2ccccc2C)c1
HEPG2TOX_HILL_SLOPE 1.35, HEPG2TOX_R_SQUARED 0.857, read-out: LUCIFERASE INFECTION ASSAY - IC50
  IC50: > 10 µM
  IC90: > 10 µM

## Cn1/c(=N/C(=O)c2ccc(=O)[nH]c2)sc2ccccc21
HEPG2TOX_HILL_SLOPE 1.38, HEPG2TOX_R_SQUARED 0.749, PBLUC_HILL_SLOPE 1.3, PBLUC_R_SQUARED 0.494, read-out: LUCIFERASE INFECTION ASSAY - IC50
  IC50: 2.61 µM
  IC90: > 10 µM

## O=C(c1ccc2nc[nH]c2c1)N1CCc2nc(NCc3cccc(Oc4ccccc4)c3)ncc2C1
HEPG2TOX_HILL_SLOPE 1.36, HEPG2TOX_R_SQUARED 0.938, PBLUC_HILL_SLOPE 1.78, PBLUC_R_SQUARED 0.322, read-out: LUCIFERASE INFECTION ASSAY - IC50
  IC50: 2.4 µM
  IC90: > 6.92 µM

## O=C1NC(c2c(-c3ccccc3)[nH]c3ccccc23)Nc2ccccc21 (configuration not stated)
HEPG2TOX_HILL_SLOPE 1.35, HEPG2TOX_R_SQUARED 0.878, PBLUC_HILL_SLOPE 2.2, PBLUC_R_SQUARED 0.804, read-out: LUCIFERASE INFECTION ASSAY - IC50
  IC50: 0.447 µM
  IC90: 1.21 µM

## COc1ccc(-c2cnc(N)c(-c3cccnc3)c2)cc1OC
HEPG2TOX_HILL_SLOPE 1.35, HEPG2TOX_R_SQUARED 0.969, PBLUC_HILL_SLOPE 2.37, PBLUC_R_SQUARED 0.379, read-out: LUCIFERASE INFECTION ASSAY - IC50
  IC50: 3.85 µM
  IC90: 9.72 µM
